Marks after values point to notes of the source that are not given here.

Data set [1] concerns human fetal osteoblasts (hFOB). In words: Serum starvation cell death in human fetal osteoblasts (trypan blue). The data set is classed as cell-based. Conditions: 100 nM for 1 hour before serum starvation for 24 hours, preliminary studies, p<0.0001. The protocol:
All PTH peptides used in the current study attenuated apoptotic signaling induced by serum starvation in vitro (FIG. 19). bbPTH 1-34 reduced apoptotic signaling in pre-osteoblastic cells more than human PTH (FIG. 19). Recently, we found similar results with preliminary studies in human fetal osteoblasts (hFOB). Serum starvation for 24 hours increased cell death in hFOB (confirmed via trypan blue staining), but pretreatment of hFOB cells with 100 nM PTH 1-34 or 1-84 for 1 hour before starvation reduced percent cell death (percentage change in cell death compared to vehicle pretreatment, hPTH 1-34: −18%, bbPTH 1-34: −25%, hPTH 1-84: −17%, bbPTH 1-84: −21%; p<0.0001; data not shown). […] However, although bbPTH 1-84 was less anti-apoptotic than bbPTH 1-34 and hPTH 1-34 in vitro (FIG. 19) it caused the greatest increases in cortical and trabecular bone mass in the in vivo studies (Table 1, Table 2).

Data set [2] concerns Male Swiss-Webster mice. In words: Cortical bone mineral content (ash fraction) and geometrical properties of the femur. The data set is classed as in vivo, mouse. To be noted: femoral midshaft, 2.5 nmol/kg s.c., 8 weeks, normalized by body mass, SD in parentheses. An excerpt:
(§1) All handling procedures and experiments were approved by the Michigan Technological University Institutional Animal Care and Use Committees. Male Swiss-Webster mice were obtained from a commercial breeder (Harlan, Indianapolis, Ind.). All animals were maintained on a 12-h light/12-h dark cycle, and were permitted free access to water and food containing 0.95% calcium (Purina Rodent Diet #5001).
(§2) In the first experiment, 11 wk old mice received daily (5 days/week) subcutaneous injections of 2.5 nmol/kg PTH 1-34 (hPTH 1-34 or bbPTH 1-34) or acidic saline vehicle (0.15 M NaCl+0.001 N HCl) for 8 weeks (n=10 mice/group). In the second experiment, 12 wk old mice received daily (5 days/week) subcutaneous injections of 2.5 nmol/kg PTH 1-84 (hPTH 1-84 or bbPTH 1-84) or acidic saline vehicle for 8 weeks (n=10 mice/group). All PTH- and vehicle-treated animals received subcutaneous injections of calcein at a dosage of 10 mg/kg on days 12 and 3 before death to label mineralizing bone surfaces. Twenty-four hours following the last treatment injection, mice were sacrificed by carbon dioxide asphyxiation. Right femurs were fixed in 10% neutral buffered formalin. Left femurs were wrapped in 0.15M saline soaked gauze and stored at −20 deg C. Left tibias were stored in 70% ethanol at 4 deg C.
Following the bending test, the left femoral diaphyses were ashed in a furnace to determine mineral content (ash fraction). Right femoral diaphyses were embedded in methyl methacrylate and sectioned with a diamond saw to expose the midshaft cross-section. Images of the midshaft cross-sections were captured using a digital camera (Spot Insight QE, Diagnostic Instruments Inc., Sterling Heights, Mich.), and Scion Image analysis software (Scion Corporation, Frederick, Md.) was used to calculate the periosteal area (Ps.Ar), cortical area (Ct.Ar), and endosteal area (Es.Ar) for each sample. Cortical bone thickness (Ct.Th) was calculated in 0.1 mm increments for each anatomical quadrant and for the entire cross-section using image analysis software (Bioquant Osteo, Nashville, Tenn.). Thin sections from the midshaft of the right femur were ground to a thickness of 50 μm and mounted on glass slides. Images of calcein labels were captured at 100× magnification and periosteal and endosteal mineral apposition rates (Ps.MAR and Es.MAR, respectively) and mineralizing surfaces (Ps.MS/BS and Es.MS/MS) were quantified (Bioquant) for each femur.
(§3) All bone geometrical, architectural, and mineral properties were normalized by body mass to account for potential variation in animal size (31-33). Trabecular bone properties quantified by micro-computed tomography were compared by ANOVA between vehicle, bear, and human PTH-treated mice within each study (PTH 1-34 or PTH 1-84). The microCT parameters were not directly compared between the PTH 1-34 and PTH 1-84 studies because analyses were conducted on different microCT machines. For all other bone properties, all six experimental groups (from both the PTH 1-34 and PTH 1-84 studies) were compared with ANOVA and Fisher's PLSD. A significance of p<0.05 was used for all comparisons.

In data set [3] the test system is rats. Conditions: Tashjian et al. 2008; cited from earlier work.
In data set [4] the test system is Male Swiss-Webster mice. In words: Trabecular bone structure and mineralization in the proximal tibia (micro-computed tomography). Conditions: PTH 1-34 study: 11 wk old mice, 8 weeks, proximal tibia, normalized by body mass. The data set is classed as in vivo, mouse.
From the text: as §1, §2
Trabecular bone architecture and mineralization were evaluated in the left proximal tibial metaphysis (0.7 mm distal to the growth plate) using micro-computed tomography. Tibias from experiment 1 were scanned on a μCT35 scanner (Scanco Medical AG, Basserdorf, Switzerland) at 3.5 μm (high) resolution. Tibias from experiment 2 were scanned on a μCT40 scanner (Scanco Medical AG, Basserdorf, Switzerland) at 7 μm (high) resolution. Bones were scanned in 70% ethanol. Trabecular bone volume fraction (BV/TV, %), trabecular number (Tb.N, mm^−1), trabecular thickness (Tb.Th, m), trabecular separation (Tb.Sp, m), trabecular apparent mineral density (App.Mn.Dn, mgHA/cm^3) and trabecular tissue mineral density (Mat.Mn.Dn, mgHA/cm^3) were computed using the manufacturer's software.
as §3

Turning to human PTH 1-34 [hPTH 1-34], in data set [1], the “percentage change in cell death compared to vehicle pretreatment” value is given as −18%. In data set [2], the Ct.Ar was 30.7 (3.0) mm^2/kg, the Ct.Th is 2.22 (0.20)^b mm/kg, the Es.Ar is recorded as 24.7 (3.7) mm^2/kg and the Ps.Ar is reported as 55.3 (5.2)^b,c mm^2/kg. In data set [3], the “dose shown to be carcinogenic in rats” value is 5 µg/kg. This substance displayed a BV/TV in data set [4] (2.5 nmol/kg s.c. daily 5 days/week) of 1.35 %/kg. In data set [4] (2.5 nmol/kg s.c.), the “App. Mn. Dn” value is 1783 mgHA/(cm^3*kg), the “Mat. Mn. Dn.” value is on record as 31281 mgHA/(cm^3*kg), the “Tb. N” value is 105.0 1/mm*kg and the “Tb. Sp” value was found to be 9.57 mm/kg. Also, the “Tb. Th” value in data set [4] (2.5 nmol/kg s.c.) was found to be 1.05 mm/kg.

Values taken from US8987201B2, “Black bear parathyroid hormone and methods of using black bear parathyroid hormone” (Michigan Technological University, priority 2009, dated 2015).
